According to the NIST ThermoML archive (doi:10.1021/acs.jced.8b00844):
Numbers after ± are expanded uncertainties.

Columns and labels:
[1] = 298.15 K; 101.33 kPa; Liquid; Vibrating tube method
[2] = refractive index (Na D-line) (dimensionless); details: 298.15 K; 101.33 kPa; Liquid; Standard Abbe refractometry

SMILES | mass density [1] | refractive index [2]
CC(C)O [propan-2-ol] | 781.4 ± 16 kg/m3 | 1.375 ± 0.012
O [water] | – | 1.3325 ± 0.012
CC(=O)OC(C)C [1-methylethyl ethanoate] | 867.6 ± 16 kg/m3 | 1.3701 ± 0.012
